Reference: ChEMBL document CHEMBL1154064, “Synthesis and DNA cleavage activity of 2-hydrazinyl-1,4,5,6-tetrahydropyrimidine containing hydroxy group” (2009)
Active and inactive are the calls of the source. The calls are words filed in the database; no cut-off is given here.

Key:
Nucleic Acid [1] = experiment: Binding affinity to Escherichia coli pUC19 DNA assessed as form 1 DNA level at 0.262 mM after 24.08 hrs by agarose gel electrophoresis; format: nucleic-acid assay
Nucleic Acid [2] = experiment: Binding affinity to Escherichia coli pUC19 DNA assessed as form 2 DNA level at 0.698 mM after 6.42 hrs by agarose gel electrophoresis; format: nucleic-acid assay
Nucleic Acid [3] = experiment: Binding affinity to Escherichia coli pUC19 DNA assessed as form 2 DNA level at 0.463 mM after 29.33 hrs by agarose gel electrophoresis; format: nucleic-acid assay
Nucleic Acid [4] = experiment: Binding affinity to Escherichia coli pUC19 DNA assessed as form 1 DNA level at 0.130 mM after 8.08 hrs by agarose gel electrophoresis; format: nucleic-acid assay
Nucleic Acid [5] = experiment: Binding affinity to Escherichia coli pUC19 DNA assessed as form 1 DNA level at 0.698 mM after 10.70 hrs by agarose gel electrophoresis; format: nucleic-acid assay
Nucleic Acid [6] = experiment: Binding affinity to Escherichia coli pUC19 DNA assessed as form 2 DNA level at 0.262 mM after 27.07 hrs by agarose gel electrophoresis; format: nucleic-acid assay
Nucleic Acid [7] = experiment: Binding affinity to Escherichia coli pUC19 DNA assessed as form 2 DNA level at 0.262 mM after 23.02 hrs by agarose gel electrophoresis; format: nucleic-acid assay
Nucleic Acid [8] = experiment: Binding affinity to Escherichia coli pUC19 DNA assessed as form 2 DNA level at 0.463 mM after 23.12 hrs by agarose gel electrophoresis; format: nucleic-acid assay
Nucleic Acid [9] = experiment: Binding affinity to Escherichia coli pUC19 DNA assessed as form 1 DNA level at 0.130 mM after 5.42 hrs by agarose gel electrophoresis; format: nucleic-acid assay
Nucleic Acid [10] = experiment: Binding affinity to Escherichia coli pUC19 DNA assessed as form 2 DNA level at 0.175 mM after 29.33 hrs by agarose gel electrophoresis; format: nucleic-acid assay
HeLa = experiment: Growth inhibition of human HeLa cells at 10 uM after 72 hrs by MTT assay; format: functional; design: scale not given: the % may be the effect or the level left
Nucleic Acid [11] = experiment: Binding affinity to supercoiled Escherichia coli pUC19 DNA assessed as formation of nicked circular DNA at 1.10 mM at pH 6.0 for 24 hrs in presence of tertiary butyl hydroxide by agarose gel electrophoresis; format: nucleic-acid assay
Nucleic Acid [12] = experiment: Binding affinity to Escherichia coli pUC19 DNA assessed as form 1 DNA level at 0.463 mM after 9.07 hrs by agarose gel electrophoresis; format: nucleic-acid assay
Nucleic Acid [13] = experiment: Binding affinity to Escherichia coli pUC19 DNA assessed as form 2 DNA level at 0.175 mM after 23.12 hrs by agarose gel electrophoresis; format: nucleic-acid assay
Nucleic Acid [14] = experiment: Binding affinity to Escherichia coli pUC19 DNA assessed as form 1 DNA level at 0.175 mM by agarose gel electrophoresis; format: nucleic-acid assay
Nucleic Acid [15] = experiment: Binding affinity to Escherichia coli pUC19 DNA assessed as form 2 DNA level at 0.130 mM by agarose gel electrophoresis; format: nucleic-acid assay
Nucleic Acid [16] = experiment: Binding affinity to Escherichia coli pUC19 DNA assessed as form 1 DNA level at 0.175 mM after 29.33 hrs by agarose gel electrophoresis; format: nucleic-acid assay
Nucleic Acid [17] = experiment: Binding affinity to Escherichia coli pUC19 DNA assessed as form 1 DNA level at 0.262 mM after 28.18 hrs by agarose gel electrophoresis; format: nucleic-acid assay
Nucleic Acid [18] = experiment: Binding affinity to Escherichia coli pUC19 DNA assessed as form 2 DNA level at 0.262 mM by agarose gel electrophoresis; format: nucleic-acid assay
Nucleic Acid [19] = experiment: Binding affinity to Escherichia coli pUC19 DNA assessed as form 1 DNA level at 0.175 mM after 27.33 hrs by agarose gel electrophoresis; format: nucleic-acid assay
Nucleic Acid [20] = experiment: Binding affinity to Escherichia coli pUC19 DNA assessed as form 1 DNA level at 0.349 mM after 24.08 hrs by agarose gel electrophoresis; format: nucleic-acid assay
HL-60 [21] = experiment: Growth inhibition of human HL60 cells at 1000 uM after 72 hrs by MTT assay; format: functional; design: scale not given: the % may be the effect or the level left
Nucleic Acid [22] = experiment: Binding affinity to Escherichia coli pUC19 DNA assessed as form 1 DNA level at 0.698 mM by agarose gel electrophoresis; format: nucleic-acid assay
Nucleic Acid [23] = experiment: Binding affinity to Escherichia coli pUC19 DNA assessed as form 2 DNA level at 0.349 mM after 26.15 hrs by agarose gel electrophoresis; format: nucleic-acid assay
Nucleic Acid [24] = experiment: Binding affinity to Escherichia coli pUC19 DNA assessed as form 1 DNA level at 0.698 mM after 8.45 hrs by agarose gel electrophoresis; format: nucleic-acid assay
HL-60 [25] = experiment: Growth inhibition of human HL60 cells at 100 uM after 72 hrs by MTT assay; format: functional; design: scale not given: the % may be the effect or the level left

Activity (Nucleic Acid [1]): 89.5%
Activity (Nucleic Acid [2]): 13.4%
Activity (Nucleic Acid [3]): 42.2%
Activity (Nucleic Acid [4]): 83.8%
Activity (Nucleic Acid [5]): 78.2%
Activity (Nucleic Acid [6]): 15.3%
Activity (Nucleic Acid [7]): 9.9%
Activity (Nucleic Acid [8]): 38%
Activity (Nucleic Acid [9]): 85%
Activity (Nucleic Acid [10]): 23.7%
Activity (Nucleic Acid [11]): inactive
Activity (Nucleic Acid [12]): 83.3%
Activity (Nucleic Acid [13]): 19.2%
Activity (Nucleic Acid [14]): 97.1%
Activity (Nucleic Acid [15]): 11.4%
Activity (Nucleic Acid [16]): 76.3%
Activity (Nucleic Acid [17]): 84.1%
Activity (Nucleic Acid [18]): 2.81%
Activity (Nucleic Acid [19]): 76%
Activity (Nucleic Acid [20]): 71.9%
Activity (Nucleic Acid [22]): 98.1%
Activity (Nucleic Acid [23]): 31.5%
Activity (Nucleic Acid [24]): 84.8%
Compound: Cl.Cl.NNC1=NCC(O)CN1 (stereo unspecified)
Activity (HeLa): 0%
Activity (HL-60 [21]): 91%
Activity (HL-60 [25]): 70%
